Test results taken from PubChem BioAssay AID248 (DTP/NCI, 2004).
“And” between values parts separate entries of the source, which are not always exact repeats. Identical values can stand only once. Inconclusive results and toxic doses are left out. Cut-off read from the data, not from the text of the source: active = T/C of 150% or more; inactive = T/C below 125%. Square brackets hold non-standard residues; d marks the D form. Peptide text beside a SMILES is read from it. * marks the point of attachment. Cbz = O=C(OCc1ccccc1)*; Sar = CNCC(=O)O

Test system: L1210 leukemia ip in BDF1 mice, survival T/C
Experiment: NCI In Vivo Anticancer Drug Screen. Data for tumor model L1210 Leukemia (intraperitoneal) in B6D2F1 (BDF1) mice
Conditions: endpoint: mean survival time, higher = longer survival
How it was run: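 Survival endpoint. Drug-treated group vs vehicle group, expressed as T divided by C. Tumor passaged by transplantation.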

[1] = dose: 100.0 mg/kg/injection, schedule: Q01DX001 (ip), vehicle: carboxymethylcellulose (CMC)
[2] = dose: 400.0 mg/kg/injection, schedule: Q01DX001 (ip), vehicle: carboxymethylcellulose (CMC)
[3] = dose: 50.0 mg/kg/injection, schedule: Q01DX001 (ip), vehicle: saline
[4] = dose: 100.0 mg/kg/injection, schedule: Q01DX001 (ip), vehicle: saline
[5] = dose: 200.0 mg/kg/injection, schedule: Q01DX001 (ip), vehicle: saline
[6] = dose: 400.0 mg/kg/injection, schedule: Q01DX001 (ip), vehicle: saline
[7] = dose: 50.0 mg/kg/injection, schedule: Q04DX002 (ip), vehicle: saline
[8] = dose: 100.0 mg/kg/injection, schedule: Q01DX009 (ip), vehicle: saline
[9] = dose: 200.0 mg/kg/injection, schedule: Q01DX009 (ip), vehicle: saline
[10] = dose: 400.0 mg/kg/injection, schedule: Q01DX009 (ip), vehicle: saline
[11] = dose: 300.0 mg/kg/injection, schedule: Q01DX001 (ip), vehicle: carboxymethylcellulose (CMC)
[12] = dose: 100.0 mg/kg/injection, schedule: Q04DX003 (ip), vehicle: saline
[13] = dose: 200.0 mg/kg/injection, schedule: Q04DX003 (ip), vehicle: saline
[14] = dose: 400.0 mg/kg/injection, schedule: Q04DX003 (ip), vehicle: saline
[15] = dose: 100.0 mg/kg/injection, schedule: Q01DX009 (ip), vehicle: saline with Tween-80
[16] = dose: 100.0 mg/kg/injection, schedule: Q04DX003 (ip), vehicle: saline with Tween-80
[17] = dose: 200.0 mg/kg/injection, schedule: Q01DX009 (ip), vehicle: saline with Tween-80
[18] = dose: 200.0 mg/kg/injection, schedule: Q04DX003 (ip), vehicle: saline with Tween-80
[19] = dose: 400.0 mg/kg/injection, schedule: Q04DX003 (ip), vehicle: saline with Tween-80
[20] = dose: 50.0 mg/kg/injection, schedule: Q01DX009 (ip), vehicle: saline with Tween-80

Measured: T/C

Brc1ccc(-c2csc(Nc3nc(-c4ccc(Br)cc4)cs3)n2)cc1
inactive: [1] 102 % of control | dose: 200.0 mg/kg/injection, schedule: Q01DX001 (ip), vehicle: carboxymethylcellulose (CMC) 98 % of control | dose: 250.0 mg/kg/injection, schedule: Q01DX015 (ip), vehicle: carboxymethylcellulose (CMC) 100 % of control | [2] 107 % of control | dose: 500.0 mg/kg/injection, schedule: Q01DX015 (ip), vehicle: carboxymethylcellulose (CMC) 100 % of control | dose: 750.0 mg/kg/injection, schedule: Q01DX015 (ip), vehicle: carboxymethylcellulose (CMC) 113 % of control | dose: 1000.0 mg/kg/injection, schedule: Q01DX015 (ip), vehicle: carboxymethylcellulose (CMC) 100 % of control

O=C(CCCC(=O)N/N=C/c1ccc([N+](=O)[O-])cc1)N/N=C\c1ccc([N+](=O)[O-])cc1
inactive: [3] 93 % of control | [4] 100 % of control | [5] 103 % of control | [6] 103 % of control

CCOC(=O)NCC(CCN1CCCC1)(CCN1CCCC1)c1cccc2ccccc12
inactive: dose: 25.0 mg/kg/injection, schedule: Q04DX002 (ip), vehicle: saline 101 % of control | [7] 93 % of control

O=S(=O)(CCO)CCO
inactive: dose: 50.0 mg/kg/injection, schedule: Q01DX009 (ip), vehicle: saline 100 % of control | [8] 100 % of control and 88 % of control | [9] 96 % of control and 100 % of control | [10] 97 % of control

COc1ccc(C)cc1OC(CCC(C)C)C(C)=O (stereo not drawn)
inactive: dose: 75.0 mg/kg/injection, schedule: Q01DX001 (ip), vehicle: carboxymethylcellulose (CMC) 93 % of control | dose: 150.0 mg/kg/injection, schedule: Q01DX001 (ip), vehicle: carboxymethylcellulose (CMC) 96 % of control | [11] 90 % of control

COC(=O)CN(C)C(=O)CNC(=O)OCc1ccccc1 (Cbz-Gly-[Sar]-OMe)
inactive: [12] 97 % of control | [13] 90 % of control | [14] 100 % of control

CC/C=C(CC)/C(CC)=C(/CC)CO
inactive: dose: 100.0 mg/kg/injection, schedule: Q01DX001 (ip), vehicle: saline with Tween-80 103 % of control | dose: 200.0 mg/kg/injection, schedule: Q01DX001 (ip), vehicle: saline with Tween-80 95 % of control | dose: 400.0 mg/kg/injection, schedule: Q01DX001 (ip), vehicle: saline with Tween-80 92 % of control

CCCC(=O)CCNC
inactive: [4] 103 % of control | [5] 94 % of control | [6] 111 % of control

CC(C)CCCCc1c[nH]c(=O)[nH]c1=O
inactive: [15] 107 % of control | [16] 94 % of control | [17] 104 % of control | [18] 97 % of control | dose: 400.0 mg/kg/injection, schedule: Q01DX009 (ip), vehicle: saline with Tween-80 101 % of control | [19] 92 % of control

O=C(O)C1=CC2(c3ccccc3)C(=O)C1(c1ccccc1)C1=C2c2cccc3cccc1c23 (stereo not drawn)
inactive: [20] 93 % of control | [15] 93 % of control | [17] 93 % of control

O=S(=O)(O)CCBr
inactive: [3] 108 % of control | [4] 96 % of control and 104 % of control | [8] 97 % of control | [5] 101 % of control and 108 % of control | [9] 96 % of control | [6] 104 % of control and 106 % of control | [10] 108 % of control

CCCCN(CCCC)S(=O)(=O)CCl
inactive: dose: 100.0 mg/kg/injection, schedule: Q04DX002 (ip), vehicle: saline with Tween-80 116 % of control | dose: 200.0 mg/kg/injection, schedule: Q04DX002 (ip), vehicle: saline with Tween-80 108 % of control | dose: 400.0 mg/kg/injection, schedule: Q04DX002 (ip), vehicle: saline with Tween-80 105 % of control

c1ccc(NCCOc2ccccc2)cc1
inactive: dose: 100.0 mg/kg/injection, schedule: Q01DX009 (ip), vehicle: Klucel (hydroxypropylcellulose) (HPC) 108 % of control | dose: 100.0 mg/kg/injection, schedule: Q04DX002 (ip), vehicle: Klucel (hydroxypropylcellulose) (HPC) 114 % of control | dose: 200.0 mg/kg/injection, schedule: Q01DX009 (ip), vehicle: Klucel (hydroxypropylcellulose) (HPC) 94 % of control | dose: 200.0 mg/kg/injection, schedule: Q04DX002 (ip), vehicle: Klucel (hydroxypropylcellulose) (HPC) 98 % of control | dose: 400.0 mg/kg/injection, schedule: Q04DX002 (ip), vehicle: Klucel (hydroxypropylcellulose) (HPC) 88 % of control

CN(CCC(C#N)c1ccccc1)C(=O)c1ccccc1 (stereo not drawn)
inactive: dose: 75.0 mg/kg/injection, schedule: Q01DX001 (ip), vehicle: saline 98 % of control | dose: 150.0 mg/kg/injection, schedule: Q01DX001 (ip), vehicle: saline 96 % of control

CC1c2ccccc2OC(=O)C1C(=O)O (stereo not drawn)
inactive: dose: 88.8 mg/kg/injection, schedule: Q01DX001 (ip), vehicle: carboxymethylcellulose (CMC) 94 % of control | [1] 94 % of control | dose: 133.4 mg/kg/injection, schedule: Q01DX001 (ip), vehicle: carboxymethylcellulose (CMC) 94 % of control | [11] 100 % of control | [2] 94 % of control

O=C(O)c1cccc(C(=O)c2ccc([N+](=O)[O-])cc2)c1
inactive: [4] 97 % of control | [12] 90 % of control | [5] 99 % of control | [13] 102 % of control | [6] 96 % of control | [14] 90 % of control

O=C1C2CCCC1C(c1ccccc1)C=C2c1ccc(O)cc1 (stereo not drawn)
inactive: [16] 97 % of control | [18] 96 % of control | [19] 94 % of control

Cc1cc(=O)[nH]c2c1CCCCC2
inactive: dose: 100.0 mg/kg/injection, schedule: Q01DX001 (ip), vehicle: Klucel (hydroxypropylcellulose) (HPC) 98 % of control | dose: 200.0 mg/kg/injection, schedule: Q01DX001 (ip), vehicle: Klucel (hydroxypropylcellulose) (HPC) 96 % of control | dose: 400.0 mg/kg/injection, schedule: Q01DX001 (ip), vehicle: Klucel (hydroxypropylcellulose) (HPC) 96 % of control

C[N+](C)(C)CCOC(=O)c1ccc(CBr)cc1
inactive: dose: 25.0 mg/kg/injection, schedule: Q01DX009 (ip), vehicle: saline with Tween-80 104 % of control | [20] 108 % of control | [7] 90 % of control | [15] 86 % of control | [8] 103 % of control | dose: 100.0 mg/kg/injection, schedule: Q04DX002 (ip), vehicle: saline 98 % of control
